Measured values: patent US4970297A, “Transglutaminase inhibitors” (Syntex (U.S.A.) Inc., priority 1987, dated 1990)

Assays:
[1] = test system: Nippostronglus braziliensis; assay: In vitro assay against Nippostronglus braziliensis; assay type: cell-based; set-up: key: A compound is defined as active if (1) cast formation is reduced 50 percent or more or (2) viability and motility together are reduced 50 percent or more; conditions: 50 μg/ml, fourth larval stage (L4), incubated at 37° C. for seven days
Procedure: N-Benzyloxycarbonyl-D,L-β-(3-bromo-4,5-dihydroisoxazol-5-yl)-alanine benzylamide was active against Nippostronglus braziliensis in an in vitro assay.
Rats were inoculated with 5,000 to 6,000 N. braziliensis third stage larvae subcutaneously. Seventy-two hours later rats were sacrificed and the fourth stage larvae harvested. Each drug was tested at 50 μg/ml against the fourth larval stage (L4) of N. braziliensis at approximately 50 L4/well. This mixture was incubated at 37° C. for a total of seven days and then read for activity. Parameters used to determine drug activity are motility, percent viability, and percent of L4 able to molt to the adult (percent cast formation). A compound is defined as active if (1) cast formation is reduced 50 percent or more or (2) viability and motility together are reduced 50 percent or more.

Hymenolepsis nana = assay: In vivo assay of anthelmintic activity, mixed helminth infection in mice; set-up: species or system Swiss-Webster mice; conditions: 1000 ppm in the food ad lib for 11 days from 24 hours post-infection, sacrificed on day 17
Procedure: (§1) Male, Swiss-Webster mice were challenged with a mixed helminth infection of Nematospiroides dubius and Hymenolepsis nana. Starting 24 hours post-infection (p.i.) mice were treated for 11 days ad lib with N-Benzyloxycarbonyl-D,L-β-(3-bromo-4,5-dihydroisoxazol-5-yl)-alanine benzylamide mixed in the food at 1000 ppm. Animals were sacrificed on day 17 to examine parasite burden in the intestine.

Nematospiroides dubius = assay: as above; set-up: species or system Swiss-Webster mice; conditions: 1000 ppm in the food ad lib for 11 days from 24 hours post-infection, sacrificed on day 17
Procedure: as §1

[2] = test system: galactose-induced cataracts; assay: Cataract therapy: galactose-induced cataracts; assay type: in vivo; conditions: oral route in the diet at 0.05%
tissue transglutaminase = target: T1, tissue transglutaminase (UniProt P08587); assay: Inactivation of tissue transglutaminase; assay type: biochemical
T1 construct: Liver transglutaminase from guinea pig liver was isolated and partially purified; from tissue; host or cells: guinea pig liver
T1 sequence (P08587 whole entry): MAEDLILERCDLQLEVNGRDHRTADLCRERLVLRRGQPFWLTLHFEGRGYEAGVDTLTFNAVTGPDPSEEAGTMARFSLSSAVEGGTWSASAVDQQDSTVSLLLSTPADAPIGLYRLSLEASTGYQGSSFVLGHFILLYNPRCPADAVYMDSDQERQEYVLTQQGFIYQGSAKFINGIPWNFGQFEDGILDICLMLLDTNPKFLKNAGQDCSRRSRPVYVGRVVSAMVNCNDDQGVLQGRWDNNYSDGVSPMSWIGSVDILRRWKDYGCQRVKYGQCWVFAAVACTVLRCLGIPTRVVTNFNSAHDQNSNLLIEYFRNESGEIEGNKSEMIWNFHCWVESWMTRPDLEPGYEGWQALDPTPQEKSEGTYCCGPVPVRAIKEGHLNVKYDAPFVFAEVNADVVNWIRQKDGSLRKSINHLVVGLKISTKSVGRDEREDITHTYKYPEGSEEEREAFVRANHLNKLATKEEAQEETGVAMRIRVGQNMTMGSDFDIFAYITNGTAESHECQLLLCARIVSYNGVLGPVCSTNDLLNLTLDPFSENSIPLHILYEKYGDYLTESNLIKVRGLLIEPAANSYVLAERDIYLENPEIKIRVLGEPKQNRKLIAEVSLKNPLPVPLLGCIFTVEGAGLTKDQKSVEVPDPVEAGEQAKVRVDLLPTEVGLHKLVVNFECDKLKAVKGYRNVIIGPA
Procedure: Liver transglutaminase from guinea pig liver was isolated and partially purified according to the procedure outlined in "Methods of Enzymology", Vol. 113, pp. 358-375, with minor modifications. The 105,000×g supernatant from the 15,000×g supernatant of a crude homogenate of guinea pig liver, was chromatographed on DEAE-Sepharose CL-6B. Enzymatic activity was eluted with a 0-1.0M NaCl gradient in 5 mM TRIS, 2 mM EDTA pH 7.5 buffer. Fractions containing activity were pooled, dialyzed against 50 mM TRIS-HCl, 2 mM EDTA, pH 7.5 buffer and concentrated, when necessary, by Amicon Ultrafiltration (PM 10 filters).
The activity and inhibition of guinea pig liver transglutaminase was assayed by measurement of the rate of incorporation of hydroxylamine into simple glutaminyl peptide derivatives, preferably CBZ-(L)-Glutaminyl-Glycine (see Folk and Chung, "Methods in Enzymology", Vol. 113, pp. 359-361). […]
Prior to activity determination, guinea pig liver transglutaminase was activated anaerobically with 5 mM calcium chloride and 1 mM dithiothreitol at 25° C. […] The concentration of product formed after 10-25 minutes incubation was determined by quenching with 250 microliters of acidic ferric chloride reagent and measurement of the absorbance at 525 nm using a Gilford 2600 UV/VIS spectrophotometer. Typical uninhibited samples provided sufficient product for 0.5 absorbance units at 525 nm. […]

human T-lymphocyte = assay: Human T-lymphocyte transformation in vitro; assay type: cell-based; conditions: at 10^-6 in vitro
Source text: Transglutaminase inactivator, N-benzyloxycarbonyl-D,L-β-(3-bromo-4,5-dihydroisoxazol-5-yl)-alanine (4-(ethoxycarbonyl)phenyl)amide, inhibited human T-lymphocyte transformation at 10^-6 in vitro.

transglutaminase = conditions: previously reported inhibitors; cited from earlier work

Q: With O=C(NC(CC1CC(Br)=NO1)C(=O)NCc1ccccc1)OCc1ccccc1 (racemic) [N-Benzyloxycarbonyl-D,L-β-(3-bromo-4,5-dihydroisoxazol-5-yl)-alanine benzylamide] as the compound, how does the “activity against Nippostronglus braziliensis (cast formation, viability and motility)” value [1] read?
A: active

Q: What about the “percent reduction of parasites in the intestine (Hymenolepsis nana)” value (Hymenolepsis nana) of the same compound?
A: significant percent reduction of parasites

Q: What about the “percent reduction of parasites in the intestine (Nematospiroides dubius)” value (Nematospiroides dubius) of the same compound?
A: significant percent reduction of parasites

Q: What does the source list for CCOC(=O)c1ccc(NC(=O)C(CC2CC(Br)=NO2)NC(=O)OCc2ccccc2)cc1 (racemic) [N-benzyloxycarbonyl-D,L-β-(3-bromo-4,5-dihydroisoxazol-5-yl)-alanine (4-(ethoxycarbonyl)phenyl)amide]?
A: onset of galactose-induced cataracts [2]: delayed the onset; inactivation of tissue transglutaminase (tissue transglutaminase): potent inactivator; cytotoxicity associated with the inhibition of T-lymphocyte transformation (human T-lymphocyte): not associated with cytotoxicity; inhibition of human T-lymphocyte transformation (human T-lymphocyte): inhibited

Q: For NCCSSCCN [cystamine], which “concentration at which effective as transglutaminase inhibitor” value (transglutaminase) is on record?
A: greater than 10^-3 M

Q: What about the specificity for transglutaminases (transglutaminase) of the same compound?
A: lacks specificity
